Values of other authors in patent US20090082738A1, “Natural Anti-Inflammatory Agents for Reducing Pain” (priority 2007, published 2009).

What was measured:
[1] = system: moderate or severe knee arthritis population; conditions: 1500 mg of glucosamine

| SMILES | clinical efficacy compared with Celebrex [1] | inhibition of cyclooxygenase (COX) (cyclooxygenase (COX)) |
| --- | --- | --- |
| N[C@H]1C(O)O[C@H](CO)[C@@H](O)[C@@H]1O (some centres unmarked) [glucosamine] | superior to the prescription medication Celebrex | – |
| C/C=C(/C=O)[C@@H](CC=O)CC(=O)OCCc1ccc(O)cc1 [Oleocanthal] | – | non-selective inhibitor of cyclooxygenase (COX) |
